Reference: PubChem BioAssay AID2060909 (Molecular Pharmacology Branch, DTP, NCI, 2025)

System: 362531-283-R-J2-PDC complex spheroid viability
Assay: Anticancer human tumor 362531-283-R-J2-PDC patient-derived colon adenocarcinoma cell line growth inhibition [RAS]
Conditions: for IC50: curve of first compound; for viability, T/C: stronger effect = lower value; active means viability on the fitted dose curve at most 10% of control; inactive means the rest
Outline: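 Agents were tested in combination matrices in half-log decrements from a top concentration at or near clinical Cmax (10 microM if undetermined). Targets were multi-cell spheroids of tumour lines plus HUVEC and MSC stromal cells.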

[1] = second compound 0.000949 µM, first compound 0.0316 µM
[2] = second compound 0.000949 µM, first compound 0.1 µM
[3] = second compound 0.000949 µM, first compound 0.316 µM
[4] = second compound 0.000949 µM, first compound 1 µM
[5] = second compound 0.000949 µM, first compound 3.16 µM
[6] = second compound 0.000949 µM, first compound 10 µM
[7] = second compound 0.003 µM, first compound 0.0316 µM
[8] = second compound 0.003 µM, first compound 0.1 µM
[9] = second compound 0.003 µM, first compound 0.316 µM
[10] = second compound 0.003 µM, first compound 1 µM
[11] = second compound 0.003 µM, first compound 3.16 µM
[12] = second compound 0.003 µM, first compound 10 µM
[13] = second compound 0.00949 µM, first compound 0.0316 µM
[14] = second compound 0.00949 µM, first compound 0.1 µM
[15] = second compound 0.00949 µM, first compound 0.316 µM
[16] = second compound 0.00949 µM, first compound 1 µM
[17] = second compound 0.00949 µM, first compound 3.16 µM
[18] = second compound 0.00949 µM, first compound 10 µM
[19] = second compound 0.03 µM, first compound 0.0316 µM
[20] = second compound 0.03 µM, first compound 0.1 µM
[21] = second compound 0.03 µM, first compound 0.316 µM
[22] = second compound 0.03 µM, first compound 1 µM
[23] = second compound 0.03 µM, first compound 3.16 µM
[24] = second compound 0.03 µM, first compound 10 µM
[25] = second compound 0.0949 µM, first compound 0.0316 µM
[26] = second compound 0.0949 µM, first compound 0.1 µM
[27] = second compound 0.0949 µM, first compound 0.316 µM
[28] = second compound 0.0949 µM, first compound 1 µM
[29] = second compound 0.0949 µM, first compound 3.16 µM
[30] = second compound 0.0949 µM, first compound 10 µM
[31] = second compound 0.3 µM, first compound 0.0316 µM
[32] = second compound 0.3 µM, first compound 0.1 µM
[33] = second compound 0.3 µM, first compound 0.316 µM
[34] = second compound 0.3 µM, first compound 1 µM
[35] = second compound 0.3 µM, first compound 3.16 µM
[36] = second compound 0.3 µM, first compound 10 µM
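Further: spheroids exposed to the agents for 7 days before readout.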
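Wherever viability, T/C is given: luminescence viability as percent of DMSO vehicle control wells.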

Cc1nc(N2CCC3(CC2)COC(C)C3N)c(CO)nc1Sc1ccnc(N)c1Cl (stereo unspecified) + CCn1c(-c2cccnc2C(C)OC)c2c3cc(ccc31)N1CCOC(CC(NC(=O)C(C(C)C)N(C)C(=O)C3(F)CCN(C(=O)C#CC(C)(C)N(C)C)CC3)C(=O)N3CCCC(N3)C(=O)OCC(C)(C)C2)C1
> 10 µM: IC50 (second compound 0.000949 µM) | IC50 (second compound 0.003 µM) | IC50 (second compound 0.00949 µM) | IC50 (second compound 0.03 µM) | IC50 (second compound 0.0949 µM) | IC50 (second compound 0.3 µM)
inactive: viability, T/C [1] 103% | viability, T/C [2] 103% | viability, T/C [3] 93% | viability, T/C [4] 102% | viability, T/C [5] 80.6% | viability, T/C [6] 72% | viability, T/C [7] 111% | viability, T/C [8] 103% | viability, T/C [9] 103% | viability, T/C [10] 86.7% | viability, T/C [11] 87.3% | viability, T/C [12] 71.1% | viability, T/C [13] 102% | viability, T/C [14] 111% | viability, T/C [15] 92.1% | viability, T/C [16] 93.3% | viability, T/C [17] 82.4% | viability, T/C [18] 77.7% | viability, T/C [19] 102% | viability, T/C [20] 108% | viability, T/C [21] 95.5% | viability, T/C [22] 89.9% | viability, T/C [23] 82.5% | viability, T/C [24] 66.4% | viability, T/C [25] 105% | viability, T/C [26] 94.9% | viability, T/C [27] 96.7% | viability, T/C [28] 77.5% | viability, T/C [29] 85.6% | viability, T/C [30] 74.7% | viability, T/C [31] 94.8% | viability, T/C [32] 117% | viability, T/C [33] 94.2% | viability, T/C [34] 87.4% | viability, T/C [35] 76.7% | viability, T/C [36] 64.9%

NC1c2ccccc2OC12CCN(c1cnc3c(N4CCCc5ncccc54)n[nH]c3n1)CC2 (stereo unspecified) + CCn1c(-c2cccnc2C(C)OC)c2c3cc(ccc31)N1CCOC(CC(NC(=O)C(C(C)C)N(C)C(=O)C3(F)CCN(C(=O)C#CC(C)(C)N(C)C)CC3)C(=O)N3CCCC(N3)C(=O)OCC(C)(C)C2)C1
inactive: viability, T/C [1] 91.7% | viability, T/C [2] 86.7% | viability, T/C [3] 76.7% | viability, T/C [4] 72.8% | viability, T/C [5] 54.8% | viability, T/C [6] 43% | viability, T/C [7] 94.8% | viability, T/C [8] 87.5% | viability, T/C [9] 75% | viability, T/C [10] 66.8% | viability, T/C [11] 63.3% | viability, T/C [12] 52% | viability, T/C [13] 86.6% | viability, T/C [14] 88.5% | viability, T/C [15] 71.3% | viability, T/C [16] 80.3% | viability, T/C [17] 69.9% | viability, T/C [18] 43.2% | viability, T/C [19] 95.8% | viability, T/C [20] 74.2% | viability, T/C [21] 77.4% | viability, T/C [22] 76.4% | viability, T/C [23] 65.6% | viability, T/C [24] 41.3% | viability, T/C [25] 95.3% | viability, T/C [26] 85.2% | viability, T/C [27] 79% | viability, T/C [28] 74.3% | viability, T/C [29] 56.4% | viability, T/C [30] 42.8% | viability, T/C [31] 87.8% | viability, T/C [32] 75.6% | viability, T/C [33] 76.9% | viability, T/C [34] 67.4% | viability, T/C [35] 57.7% | viability, T/C [36] 53.1%
7.5 µM: IC50 (second compound 0.00949 µM)
5.87 µM: IC50 (second compound 0.0949 µM)
5.44 µM: IC50 (second compound 0.000949 µM)
6.81 µM: IC50 (second compound 0.03 µM)
> 10 µM: IC50 (second compound 0.003 µM) | IC50 (second compound 0.3 µM)

Nc1ccn(C2OC(CO)C(O)C2(F)F)c(=O)n1 (stereo unspecified) + CCn1c(-c2cccnc2C(C)OC)c2c3cc(ccc31)N1CCOC(CC(NC(=O)C(C(C)C)N(C)C(=O)C3(F)CCN(C(=O)C#CC(C)(C)N(C)C)CC3)C(=O)N3CCCC(N3)C(=O)OCC(C)(C)C2)C1
0.189 µM: IC50 (second compound 0.03 µM)
0.163 µM: IC50 (second compound 0.3 µM)
0.177 µM: IC50 (second compound 0.00949 µM)
inactive: viability, T/C (second compound 0.000949 µM, first compound 0.00316 µM) 100% | viability, T/C (second compound 0.000949 µM, first compound 0.01 µM) 95.5% | viability, T/C [1] 69.5% | viability, T/C [2] 77.3% | viability, T/C [3] 22.2% | viability, T/C [4] 31.3% | viability, T/C (second compound 0.003 µM, first compound 0.00316 µM) 103% | viability, T/C (second compound 0.003 µM, first compound 0.01 µM) 92.9% | viability, T/C [7] 77.6% | viability, T/C [8] 68.5% | viability, T/C [9] 22.9% | viability, T/C [10] 33.2% | viability, T/C (second compound 0.00949 µM, first compound 0.00316 µM) 103% | viability, T/C (second compound 0.00949 µM, first compound 0.01 µM) 93.2% | viability, T/C [13] 73.4% | viability, T/C [14] 77.4% | viability, T/C [15] 19.2% | viability, T/C [16] 25.5% | viability, T/C (second compound 0.03 µM, first compound 0.00316 µM) 111% | viability, T/C (second compound 0.03 µM, first compound 0.01 µM) 83.5% | viability, T/C [19] 86.8% | viability, T/C [20] 82.2% | viability, T/C [21] 20.1% | viability, T/C [22] 27.6% | viability, T/C (second compound 0.0949 µM, first compound 0.00316 µM) 100% | viability, T/C (second compound 0.0949 µM, first compound 0.01 µM) 91.7% | viability, T/C [25] 69.5% | viability, T/C [26] 69.6% | viability, T/C [27] 19.7% | viability, T/C [28] 26.8% | viability, T/C (second compound 0.3 µM, first compound 0.00316 µM) 96.2% | viability, T/C (second compound 0.3 µM, first compound 0.01 µM) 90% | viability, T/C [31] 73.3% | viability, T/C [32] 69.2% | viability, T/C [33] 23.2% | viability, T/C [34] 24.2%
0.169 µM: IC50 (second compound 0.000949 µM)
0.153 µM: IC50 (second compound 0.003 µM)
0.132 µM: IC50 (second compound 0.0949 µM)
